The structures appear in SMILES notation.

The target of this assay is T1, ALK (baculovirus expressed human ALK kinase domain F1098-K1410) (Homo sapiens, UniProt Q9UM73).
T1 construct: human ALK kinase domain F1098-K1410; made in house
The assay is described as follows: biochemical. The settings on record: 1 μM ATP, 4 μM poly-AEKY, 12 nM ALK, 2 hours at ambient temperature; read-out: ALK IC50. As for the experimental part: Kinase activity and compound inhibition are investigated using one or more of the three assay formats described below. The ATP concentrations for each assay are selected to be close to the Michaelis-Menten constant (KM) for each individual kinase. Dose-response experiments are performed at 10 different inhibitor concentrations in a 384-well plate format. […] Y=Min+(Max−Min)/(1+(X/IC50)^H) Equation (2) Luciferase-Coupled Chemiluminescent Kinase Assay
ALK biochemical activity was assessed using a Luciferase-Coupled Chemiluminescent Kinase assay (LCCA) format in which kinase activity was measured as the percent ATP remaining following the kinase reaction. ATP remaining after the kinase reaction was detected by luciferase-luciferin-coupled chemiluminescence. […] The mixture was incubated at ambient temperature for 2 hours after which 20 μL luciferase-luciferin mix was added and the chemiluminescent signal read using a Wallac Victor^2 reader. […] Consumption of ATP by ALK can be quantified and utilized as a measure of inhibition of ALK activity by compounds described herein. By employing serial dilutions of compounds to be tested, the ability of test compounds to inhibit ALK activity can be determined.

T1 sequence (Q9UM73 1098-1410): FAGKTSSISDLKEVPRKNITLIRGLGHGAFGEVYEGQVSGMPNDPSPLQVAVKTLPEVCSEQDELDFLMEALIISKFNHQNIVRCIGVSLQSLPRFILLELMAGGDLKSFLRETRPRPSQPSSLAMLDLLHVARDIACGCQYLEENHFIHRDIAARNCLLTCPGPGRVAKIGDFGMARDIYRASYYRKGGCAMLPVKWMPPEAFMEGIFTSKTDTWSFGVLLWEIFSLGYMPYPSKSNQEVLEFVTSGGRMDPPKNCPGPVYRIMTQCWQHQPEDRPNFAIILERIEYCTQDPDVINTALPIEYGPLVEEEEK

For orientation: IC50 means the concentration that inhibits the measured activity by half. `O=C(COc1ccc(OC(F)(F)F)cc1)NCc1nc(C(=O)NCCc2cccc(Cl)c2)co1` [Entry 31, N-[2-(3-chlorophenyl)ethyl]-2-({[({4-[(trifluoromethyl)oxy]phenyl}oxy)acetyl]amino}methyl)-1,3-oxazole-4-carboxamide]: the half-maximal inhibitory concentration (IC50) is 0.05 to 0.5 µM.
Turning to `O=C(COc1ccc(OC(F)(F)F)cc1)NCc1nc(C(=O)NCc2ccccc2Cl)cs1` [Entry 32, N-[(2-chlorophenyl)methyl]-2-({[({4-[(trifluoromethyl)oxy]phenyl}oxy)acetyl]amino}methyl)-1,3-thiazole-4-carboxamide], the IC50 was in the range of 0.05 to 0.5 µM.
As for `Cc1ccc(C)c(CCNC(=O)c2csc(CNC(=O)COc3ccc(OC(F)(F)F)cc3)n2)c1` [Entry 33, N-[2-(2,5-dimethylphenyl)ethyl]-2-({[({4-[(trifluoromethyl)oxy]phenyl}oxy)acetyl]amino}methyl)-1,3-thiazole-4-carboxamide], the figure is 0.05 to 0.5 µM.
Next, `O=C(COc1ccc(OC(F)(F)F)cc1)NCc1nc(C(=O)NCc2ccccc2OC(F)F)cs1` [Entry 34, N-({2-[(difluoromethyl)oxy]phenyl}methyl)-2-({[({4-[(trifluoromethyl)oxy]phenyl}oxy)acetyl]amino}methyl)-1,3-thiazole-4-carboxamide]: 0.05 to 0.5 µM; `O=C(COc1ccc(OC(F)(F)F)cc1)NCc1nc(C(=O)NCCC2=CCCCC2)cs1` [Entry 35, N-(2-cyclohex-1-en-1-ylethyl)-2-({[({4-[(trifluoromethyl)oxy]phenyl}oxy)acetyl]amino}methyl)-1,3-thiazole-4-carboxamide]: 0.05 to 0.5 µM; `Cc1ccc(CCNC(=O)c2csc(CNC(=O)COc3ccc(OC(F)(F)F)cc3)n2)cc1` [Entry 36, N-[2-(4-methylphenyl)ethyl]-2-({[({4-[(trifluoromethyl)oxy]phenyl}oxy)acetyl]amino}methyl)-1,3-thiazole-4-carboxamide]: 0.05 to 0.5 µM.
As for `CCCCOCCCNC(=O)c1csc(CNC(=O)COc2ccc(OC(F)(F)F)cc2)n1` [Entry 37, N-[3-(butyloxy)propyl]-2-({[({4-[(trifluoromethyl)oxy]phenyl}oxy)acetyl]amino}methyl)-1,3-thiazole-4-carboxamide], the figure is 0.05 to 0.5 µM; as for `O=C(COc1ccc(OC(F)(F)F)cc1)NCc1nc(C(=O)NCC2c3ccccc3CCc3ccccc32)co1` [Entry 38, N-(10,11-dihydro-5H-dibenzo[a,d]cyclohepten-5-ylmethyl)-2-({[({4-[(trifluoromethyl)oxy]phenyl}oxy)acetyl]amino}methyl)-1,3-oxazole-4-carboxamide], 0.05 to 0.5 µM.
Consider `Cc1ccc(Cl)cc1CNC(=O)c1csc(CNC(=O)COc2ccc(OC(F)(F)F)cc2)n1` [Entry 39, N-[(5-chloro-2-methylphenyl)methyl]-2-({[({4-[(trifluoromethyl)oxy]phenyl}oxy)acetyl]amino}methyl)-1,3-thiazole-4-carboxamide], for which the half-maximal inhibitory concentration (IC50) was 0.05 to 0.5 µM.
Next, `COc1cccc(CCNC(=O)c2csc(CNC(=O)COc3ccc(OC(F)(F)F)cc3)n2)c1` [Entry 40, N-{2-[3-(methyloxy)phenyl]ethyl}-2-({[({4-[(trifluoromethyl)oxy]phenyl}oxy)acetyl]amino}methyl)-1,3-thiazole-4-carboxamide]: 0.05 to 0.5 µM; `CSc1ccccc1CNC(=O)c1csc(CNC(=O)COc2ccc(OC(F)(F)F)cc2)n1` [Entry 41, N-{[2-(methylthio)phenyl]methyl}-2-({[({4-[(trifluoromethyl)oxy]phenyl}oxy)acetyl]amino}methyl)-1,3-thiazole-4-carboxamide]: 0.05 to 0.5 µM.
As for `COc1ccc(CCNC(=O)c2csc(CNC(=O)COc3ccc(OC(F)(F)F)cc3)n2)cc1OC` [Entry 42, N-{2-[3,4-bis(methyloxy)phenyl]ethyl}-2-({[({4-[(trifluoromethyl)oxy]phenyl}oxy)acetyl]amino}methyl)-1,3-thiazole-4-carboxamide], the figure is 0.05 to 0.5 µM; as for `CCOc1ccc(CCNC(=O)c2csc(CNC(=O)COc3ccc(OC(F)(F)F)cc3)n2)cc1OC` [Entry 43, N-{2-[4-(ethyloxy)-3-(methyloxy)phenyl]ethyl}-2-({[({4-[(trifluoromethyl)oxy]phenyl}oxy)acetyl]amino}methyl)-1,3-thiazole-4-carboxamide], 0.05 to 0.5 µM; as for `O=C(COc1ccc(OC(F)(F)F)cc1)NCc1nc(C(=O)NCCc2ccc(Cl)c(Cl)c2)cs1` [Entry 44, N-[2-(3,4-dichlorophenyl)ethyl]-2-({[({4-[(trifluoromethyl)oxy]phenyl}oxy)acetyl]amino}methyl)-1,3-thiazole-4-carboxamide], 0.05 to 0.5 µM.
Consider `O=C(COc1ccc(OC(F)(F)F)cc1)NCc1nc(C(=O)NCCc2c[nH]c3ccccc23)cs1` [Entry 45, N-[2-(1H-indol-3-yl)ethyl]-2-({[({4-[(trifluoromethyl)oxy]phenyl}oxy)acetyl]amino}methyl)-1,3-thiazole-4-carboxamide], for which the IC50 lay within 0.05 to 0.5 µM.
As for `Cc1cccc(CNC(=O)c2csc(CNC(=O)COc3ccc(OC(F)(F)F)cc3)n2)c1C` [Entry 46, N-[(2,3-dimethylphenyl)methyl]-2-({[({4-[(trifluoromethyl)oxy]phenyl}oxy)acetyl]amino}methyl)-1,3-thiazole-4-carboxamide], the figure is 0.05 to 0.5 µM.
Next, `Cc1ccc(F)cc1CNC(=O)c1csc(CNC(=O)COc2ccc(OC(F)(F)F)cc2)n1` [Entry 47, N-[(5-fluoro-2-methylphenyl)methyl]-2-({[({4-[(trifluoromethyl)oxy]phenyl}oxy)acetyl]amino}methyl)-1,3-thiazole-4-carboxamide]: 0.05 to 0.5 µM.
As for `O=C(COc1ccc(OC(F)(F)F)cc1)NCc1nc(C(=O)NCCc2ccncc2)cs1` [Entry 48, N-(2-pyridin-4-ylethyl)-2-({[({4-[(trifluoromethyl)oxy]phenyl}oxy)acetyl]amino}methyl)-1,3-thiazole-4-carboxamide], the figure is 0.05 to 0.5 µM.
For the compound `Cc1ccc(CCNC(=O)c2csc(CNC(=O)COc3ccc(OC(F)(F)F)cc3)n2)c(C)c1` [Entry 49, N-[2-(2,4-dimethylphenyl)ethyl]-2-({[({4-[(trifluoromethyl)oxy]phenyl}oxy)acetyl]amino}methyl)-1,3-thiazole-4-carboxamide], the half-maximal inhibitory concentration (IC50) fell in the range of 0.05 to 0.5 µM.
Next, `CC(C)c1ccc(CC(=O)NCc2nc(C(=O)NCCc3cccc(Cl)c3)cs2)cc1` [Entry 50, N-[2-(3-chlorophenyl)ethyl]-2-[({[4-(1-methylethyl)phenyl]acetyl}amino)methyl]-1,3-thiazole-4-carboxamide]: 0.05 to 0.5 µM.
Regarding `O=C(COc1ccc(OC(F)(F)F)cc1)NCc1nc(C(=O)NCCc2cccnc2)cs1` [Entry 51, N-(2-pyridin-3-ylethyl)-2-({[({4-[(trifluoromethyl)oxy]phenyl}oxy)acetyl]amino}methyl)-1,3-thiazole-4-carboxamide], the IC50 fell in the range of 0.05 to 0.5 µM.
As for `O=C(COc1ccc(OC(F)(F)F)cc1)NCc1nc(C(=O)NCCc2cccc(C(F)(F)F)c2)cs1` [Entry 52, 2-({[({4-[(trifluoromethyl)oxy]phenyl}oxy)acetyl]amino}methyl)-N-{2-[3-(trifluoromethyl)phenyl]ethyl}-1,3-thiazole-4-carboxamide], the figure is 0.05 to 0.5 µM.
